The test system of test [1] is growth plate cartilage. Briefly: Histology and immunohistochemistry of growth plate cartilage of cultured femur explants. Also on record: species or system mice. The method, then: In order to appreciate the impact of the treatment on the growth plate cartilage, we performed histological and immunohistological studies. We selected specific markers of the cartilage, SOX9 and Collagen type X, we tested the expression of the protein FGFR3 and we also evaluated the expression of the phosphorylated Erk1/2 proteins of the […] signalling and activated by FGFR3. Limb explants were fixed after culture in 4% paraformaldehyde at 4° C. and embedded in paraffin. Serial 5 μm sections were stained with Hematoxylin-Eosin using standard protocols for histological analysis or were subjected to immunohistochemical staining. For immunohistochemistry, sections were stained with antibodies specific to FGFR3 (1:100 dilution; Sigma), anti-Collagen type X (1:50 dilution; Quartett) anti-SOX9 (1:1000 dilution; Abcam), anti-phosphorylated Erk1/2 (1:100 dilution; Cell signaling) using the Dako Envision system kit. Images were captured with an Olympus PD70-IX2-UCB microscope.

In test [2] the test system is Fgfr3^Y367C/+ chondrocytes. Briefly: Primary cilium length in antenatal E16.5 Fgfr3Y367C/+ chondrocytes (immunocytochemistry). The class given is cell-based, mice. The method, then: Cultured chondrocytes issued from Fgfr3^Y367C/+ were fixed at room temperature for 10 min in methanol (chilled at −20° C.), and then washed with PBS. Samples were permeabilized for 10 min with PBS containing 0.1% Triton-X100 (Sigma-Aldrich), then washed three times for 5 min. Samples were incubated with PBS containing 10% goat serum (Biowest) for 60 min at room temperature. Primary antibodies were incubated at 4° C. overnight. The following primary antibodies were used: mouse IgG1 anti-γ-tubulin (Sigma-Aldrich #T6557, 1:1000) and rabbit anti-Ar113b (Proteintech #177111-AP, 1:500). Cells were washed with PBS, and then incubated with goat anti-mouse IgG1 coupled with AlexaFluor 488 (Life Technologies, 1:1000) and goat anti-rabbit coupled with AlexaFluor 647 (Life Technologies, 1:1000) secondary antibodies for 2h at room temperature in the dark. Samples were extensively washed and mounted with a solution of DAPI-Fluoromount G (SouthernBiotech) containing DAPI (4′,6′-diamidino-2-phenylindole) for nuclear staining. Image acquisition were captured using a Spinning disk confocal microscope. […] In order to compare measured data, all confocal experiments showing PC length was acquired in same conditions using slice thickness of 0.20 μm and a pixel size of 60 nm. […] We next measured in 2D the PC lengths by IMARIS software (Bitplane).

For test [3], the system named is Fgfr3^+/+ femurs. Briefly: Ex vivo femur cultures isolated from Fgfr3+/+ mice. The method, then: (§1) Several sets of ex vivo experiments were performed as previously described (Jonquoy et al., Hum Mol Genet, 21: 841-851, 2012). Femur embryos at day E16.5 from Fgfr3^+/+ (n=23) and Fgfr3^Y367C/+ (n=16) mice were used and incubated for 6 days in DMEM medium with antibiotics and 0.2% BSA (Sigma) supplemented with cocoa F5 or (−)-epicatechin (Sigma-0394-05-90) or DMSO (as control) at a concentration of 10 and 30 μg/ml. To establish the effect of the inhibitors, the left femur was cultured in supplemented medium and compared with the right one cultured in control medium. The bone length was measured at the beginning (before treatment) and at the end of time course. The genotype of Fgfr3^+/+ and Fgfr3^Y367C/+ mice were determined by PCR of tail DNA as previously described (Pannier et al., Biochim Biophys Acta, 1792: 140-147, 2009). All experimental procedures and protocols were approved by the Animal Care and Use Committee.

Test [4] deals with Fgfr3^Y367C/+ femurs. Briefly: Ex vivo femur cultures isolated from Fgfr3Y367C/+ mice. As for the experimental part:
as §1

Where [5] appears, read: proximal and distal femurs, immunohistochemistry.

We go through 1 molecule from patent US20210052546A1, “METHODS AND PHARMACEUTICAL COMPOSITIONS FOR THE TREATMENT OF FGFR3-RELATED CHONDRODYSPLASIAS” (INSERM (INSTITUT NATIONAL DE LA SANTÉ ET DE LA RECHERCHE …, priority 2018, published 2021).

Consider `Oc1cc(O)c2c(c1)O[C@H](c1ccc(O)c(O)c1)[C@H](O)C2` [(−)-epicatechin, (2R,3R)-2-(3,4-dihydroxyphenyl)-3,4-dihydro-2H-chromene-3,5,7-triol], for which, in test [1] (H&E staining), the “reserve, proliferative and pre-hypertrophic zones of the growth plate cartilage” value was “increased”; the “whole growth plate cartilage” value is “improved”. In addition, in test [1] (proximal and distal femur, histology), the epiphysis size result is “increase size”. In test [1] (setting [5]), the FGFR3 expression entry was “strongly decreased”, the SOX9 expression result is reported as “strongly decreased”, the “collagen type X expression” value is reported as “not modified” and the “phosphorylated Erk1/2 expression” value is reported as “slightly decreased”. The “effect on primary cilium” value in test [2] (Fgfr3Y367C/+ chondrocytes) is “elongation”. Besides, the “primary cilium average length (A)” value in test [2] (Fgfr3Y367C/+ chondrocytes treated with (−)-epicatechin, n=113, N=3, mean+S.E.M., untreated 2.10+0.06, in µm) is reported as 2.45+0.09. In test [3] (1 μg/ml (FIG. 13)), the “size of the femurs, Fgfr3+/+” value is “did not improve”. For the same molecule, in test [3] (10 μg/ml, 6 days culture), the “growth of the Fgfr3+/+ femurs” value is reported as “did not impair”. In addition, the “size of the femurs, Fgfr3Y367C/+” value in test [4] (1 μg/ml (FIG. 13)) is listed as “did not improve”. Also, the “percentage of femur growth in Fgfr3Y367C/+ mice versus Fgfr3+/+ mice” value in test [4] (10 μg/ml, 6 days culture) is “more important”. For the same molecule, the “increase of length of the Fgfr3Y367C/+ femurs comparing to Fgfr3+/+ femurs” value in test [4] (10 μg/ml, E16.5 femurs, 6 days culture) is given as “+10%”.
